Series [1] concerns A-375. Briefly: Antiproliferative activity against human A375 cells harboring BRAF(V600E) mutation after 72 hrs by cell titer glow cell titer glow FCTGI assay. As to conditions: A-375, 72 h.
Series [2] can be described thus: cells. As to conditions: Homo sapiens, HCT-116.
Description: Antiproliferative activity against human HCT116 cells harboring K-Ras G13D mutation
The nature of series [3]: Half life in rat at 0.5 mg/kg, iv or 5 mg/kg, po. Type of series: ADME, organism-based. As to conditions: in vivo.
Series [4] is described as follows: Oral bioavailability in rat 5 mg/kg. The format is ADME, organism-based. As to conditions: in vivo.
Series [5] can be described thus: cells. Particulars: Homo sapiens, COLO 205.
Description: Antiproliferative activity against human COLO205 cells harboring BRAF mutation
Series [6] deals with MCF7. Description: cells. Particulars: Homo sapiens.
Description: Antiproliferative activity against human MCF7 cells
The nature of series [7]: Blood clearance in rat at 0.5 mg/kg, iv or 1 mg/kg, po. The format is ADME, organism-based.
Series [8] can be described thus: Volume of distribution at steady state in rat at 0.5 mg/kg, iv or 1 mg/kg, po. The format is ADME, organism-based. Particulars: in vivo, read-out: Vdss.
Series [9] can be described thus: Half life in rat at 0.5 mg/kg, iv or 1 mg/kg, po. The format is ADME, organism-based. Particulars: in vivo.
Series [10] is described as follows: Oral bioavailability in rat 1 mg/kg. The format is ADME, organism-based. Particulars: in vivo.
The nature of series [11]: Ratio of AUC in brain to plasma in mouse at 5 mg/kg, iv measured for 0 to 3 hrs. Type of series: ADME, organism-based. As to conditions: brain and plasma, read-out: BPR.
The subject of series [12] is A549. Briefly: Antitumor activity against human A549 cells xenografted in mouse assessed as reduction in tumor area at 1 mg/kg, po qd relative to control. Type of series: functional. Background: In xenograft studies the graft and the host belong to different species.
For series [13], the system named is HepG2. Description: cells. As to conditions: Homo sapiens.
Description: Antiproliferative activity against human HepG2 cells harboring N-Ras mutation
The subject of series [14] is A549. Description: cells. As to conditions: Homo sapiens.
Description: Antiproliferative activity against human A549 cells harboring K-Ras mutation
Series [15] relates to A549. Description: Antitumor activity against human A549 cells xenografted in mouse assessed as reduction in tumor area at 2 mg/kg, po qd relative to control. Type of series: functional.
Series [16] has as its target Carbonic anhydrase 1 (Homo sapiens, UniProt P00915). Description: Inhibition of human carbonic anhydrase 1.
The target in series [17] is Carbonic anhydrase 2 (Homo sapiens, UniProt P00918). Briefly: Inhibition of human carbonic anhydrase 2.

31 compounds from ChEMBL document CHEMBL3745607, “Optimization of allosteric MEK inhibitors. Part 2: Taming the sulfamide group balances compound distribution properties” (Bioorg Med Chem Lett, 2016) can be followed below.

In general, IC50 refers to the concentration that inhibits the measured activity by half. As a reminder, the half-life is how long it takes for the measured level to halve. High values mean slow decline, low ones rapid decline. The bioavailability is dose-corrected exposure relative to a reference, in per cent.

Sequence of Carbonic anhydrase 1 (P00915 whole entry): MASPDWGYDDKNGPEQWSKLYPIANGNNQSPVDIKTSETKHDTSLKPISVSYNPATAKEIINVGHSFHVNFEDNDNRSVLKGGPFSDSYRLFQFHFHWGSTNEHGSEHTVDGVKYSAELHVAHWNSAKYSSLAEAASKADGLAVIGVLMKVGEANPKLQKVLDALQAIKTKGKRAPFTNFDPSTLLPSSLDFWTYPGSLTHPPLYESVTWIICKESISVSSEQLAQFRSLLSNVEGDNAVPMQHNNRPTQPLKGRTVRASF

For the compound `NC(=O)c1c(Oc2ccc(F)c(NS(N)(=O)=O)c2F)cc(F)c(F)c1Nc1ccc(I)cc1F`, the IC50 in series [1] was determined as 32 nM; in [2], 2950 nM.

Take `CCS(=O)(=O)Nc1cccc(Oc2cc(F)c(F)c(Nc3ccc(I)cc3F)c2C(N)=O)c1`: the IC50 is 2.4 nM in [1] and 65 nM in [2].

`CC(NS(N)(=O)=O)c1cccc(Oc2cc(F)cc(Nc3ccc(I)cc3F)c2C(N)=O)c1` (configuration not stated): the results for the IC50 in series [1] and in series [2] were 24 nM and 731 nM, respectively.

Take `Cc1ccc(Oc2cc(F)cc(Nc3ccc(I)cc3F)c2C(N)=O)cc1NS(N)(=O)=O`: the midpoint of inhibition in [1], the IC50, lay at 180 nM.

`Cn1cnc2c(F)c(Nc3ccc(Br)cc3Cl)c(C(=O)NOCCO)cc21` [SELUMETINIB]: the half-life in [3] is 4.1 h. Further, in series [4], the bioavailability was 24%. The 50% inhibitory concentration (IC50) in [2] was 3000 nM; in series [5], 69 nM; in series [6] it was over 10000 nM.

In turn, `Cc1cccc(Oc2cc(F)cc(Nc3ccc(I)cc3F)c2C(N)=O)c1NS(N)(=O)=O` came in with an IC50 in series [1] of 218 nM. This counts as sub-micromolar.

On to `NC(=O)c1c(Oc2cccc(CS(N)(=O)=O)c2)cc(F)c(F)c1Nc1ccc(I)cc1F`, for which the IC50 in series [1] was 11 nM; in series [2], 303 nM.

`NC(=O)c1c(Oc2cccc(NS(N)(=O)=O)c2)cc(F)c(F)c1Nc1ccc(I)cc1F`: the IC50 came to 2 nM in [1] and 50 nM in series [2].

`NC(=O)c1c(Nc2ccc(I)cc2F)cc(F)cc1Oc1cccc(F)c1NS(N)(=O)=O` came in with an IC50 in [1] of 138 nM. In other words, the sub-micromolar range.

In the case of `CN(C)S(=O)(=O)Nc1cccc(Oc2cc(F)c(F)c(Nc3ccc(I)cc3F)c2C(N)=O)c1`, the IC50 in series [1] was determined as 6 nM; in series [2], 42 nM.

Turning to `COc1ccc(Oc2cc(F)cc(Nc3ccc(I)cc3F)c2C(N)=O)cc1NS(N)(=O)=O`, the IC50 in [1] was 731 nM.

For `NC(=O)c1c(Nc2ccc(I)cc2F)cc(F)cc1Oc1cccc(NS(N)(=O)=O)c1Cl`, the IC50 in series [1] amounted to 6 nM; in series [2] it was 87 nM.

The compound `CCOc1ccc(Oc2cc(F)cc(Nc3ccc(I)cc3F)c2C(N)=O)cc1NS(N)(=O)=O` showed a concentration for half-maximal inhibition (IC50) in series [1] of 977 nM.

As for `Cc1c(NS(N)(=O)=O)cccc1Oc1cc(F)c(F)c(Nc2ccc(I)cc2F)c1C(N)=O`, the values for the IC50 in series [1] and in series [2] were 0.2 nM and 2 nM, respectively.

On to `CCS(=O)(=O)Nc1cccc(Oc2c(F)c(F)cc(Nc3ccc(I)cc3F)c2C(N)=O)c1`, for which the IC50 worked out at 4 nM in series [1] and 81 nM in series [2].

For the compound `NC(=O)c1c(Nc2ccc(I)cc2F)cc(F)cc1Oc1ccc(F)c(NS(N)(=O)=O)c1F`, in [1], half-maximal inhibition (IC50) was put at 374 nM.

Regarding `NC(=O)c1c(Nc2ccc(I)cc2F)cc(F)cc1Oc1cccc(CS(N)(=O)=O)c1`, in [2], the IC50 was determined as 3500 nM.

As for `Cc1c(NS(N)(=O)=O)cccc1Oc1cc(F)cc(Nc2ccc(I)cc2F)c1C(N)=O`, the IC50 in [1] came to 2 nM; in series [2], 9 nM.

For the compound `NC(=O)c1c(Nc2ccc(I)cc2F)cc(F)cc1Oc1cccc(CNS(N)(=O)=O)c1`, the IC50 is 35 nM in series [1] and 757 nM in series [2].

In the case of `NC(=O)c1c(Nc2ccc(I)cc2F)cc(F)cc1Oc1ccc2c(c1)N(S(N)(=O)=O)CCO2`, the 50% inhibitory concentration (IC50) in [1] is 339 nM.

`NC(=O)c1c(Nc2ccc(I)cc2F)cc(F)cc1Oc1ccc(F)c(NS(N)(=O)=O)c1`: the IC50 in [1] was found to be 90 nM; in [2] it was 2510 nM.

Take `NC(=O)c1c(Oc2cccc(CNS(N)(=O)=O)c2)cc(F)c(F)c1Nc1ccc(I)cc1F`: the IC50 in series [1] was 4 nM; in series [2], 124 nM; in series [13] it was 5 nM; in series [5], 9 nM; in [14], 185 nM; in series [6] it was over 10000 nM. This compound also showed a clearance in [7] of 1.17 mL/min/kg. Also, the Vd in series [8] was 1.9 L/kg. Moreover, in [9], the half-life is 32 h. The same compound displayed a bioavailability in [10] of 78%. Moreover, the Kp in [11] was under 0.02. Further, the T/C in series [12] was 0.13.

As for `CCNS(=O)(=O)Nc1cccc(Oc2cc(F)cc(Nc3ccc(I)cc3F)c2C(N)=O)c1`, the figures for the IC50 in [1] and in series [2] were under 30 nM and 287 nM, respectively.

For the compound `NC(=O)c1c(Oc2ccc(F)c(NS(N)(=O)=O)c2)cc(F)c(F)c1Nc1ccc(I)cc1F`, the IC50 in series [1] is 13 nM; in [2] it was 277 nM; in series [13], 2 nM; in [5], 42 nM; in [14] it was 314 nM; in [6], over 10000 nM. In series [7], this compound had a clearance of 0.333 mL/min/kg. For the same compound, the Vd in series [8] amounted to 0.5 L/kg. For the same compound, the half-life in series [9] is 26 h. The compound further registered a bioavailability in series [10] of 84%. Moreover, in series [11], the Kp is under 0.02. In [15], the T/C is given as 0.21.

With `NC(=O)c1c(Nc2ccc(I)cc2F)cc(F)cc1Oc1ccccc1NS(N)(=O)=O`, the 50% inhibitory concentration (IC50) in [1] worked out at 65 nM; in series [2], 2400 nM.

For the compound `NC(=O)c1c(Nc2ccc(I)cc2F)cc(F)cc1Oc1cccc(NS(N)(=O)=O)c1`, the Kp in [11] is under 0.02. For the same compound, the T/C in [12] was 0.15. Moreover, the IC50 in series [16] worked out at 4800 nM; in [2], 180 nM.

`NC(=O)c1c(Nc2ccc(I)cc2F)cc(F)cc1Oc1ccc(Cl)c(NS(N)(=O)=O)c1` returned an IC50 in series [1] of 483 nM.

Compound `Cc1ccc(NS(N)(=O)=O)cc1Oc1cc(F)cc(Nc2ccc(I)cc2F)c1C(N)=O` returned an IC50 in series [1] of 570 nM.

Regarding `NC(=O)c1c(Nc2ccc(I)cc2F)cc(F)cc1Oc1cccc(NS(N)(=O)=O)c1Br`, the values for the concentration for half-maximal inhibition (IC50) in series [1] and in [2] were 8 nM and 152 nM, respectively.

Consider `NCCS(=O)(=O)Nc1cccc(Oc2cc(F)cc(Nc3ccc(I)cc3F)c2C(N)=O)c1`, for which the figures for the IC50 in series [1], in [17] and in series [2] were 88 nM, over 10000 nM and 1800 nM, respectively.

Compound `COc1cc(NS(N)(=O)=O)cc(Oc2cc(F)cc(Nc3ccc(I)cc3F)c2C(N)=O)c1` displayed an IC50 in series [1] of 922 nM.
